Molecules are shown by their SMILES.

This data set can be described thus: Stability of ascorbic acid and reduced glutathione in solution over time (chromatography with electrospray MS / photo diode array detection). The format is physicochemical. As to conditions: stored at room temperature. As for the experimental part: A second solution and the final formulation from Example 1 were analyzed to evaluate the stability of ascorbic acid and reduced glutathione over a period of time at room temperature. The final formulation was formed by mixing together the first and second solutions and its pH was adjusted to about 7.4. […] The stability of ascorbic acid and the stability of reduced glutathione were determined over a period of time in both solutions. Both the final formulation and the second solution were stored at room temperature. The chromatography method developed and employed for this study separated the ascorbic acid and glutathione reproducibly and without any mutual interference between the components or their decomposition products. Two components were detected using electrospray spectrometry in +ve selected ion monitoring mode. In addition L-Ascorbic acid, and L-glutathione were also detected by photo diode array absorbing in the 190-400 nm range. The integrated chromatographic intensities of each of the component peaks was a measure of its molar quantity in solution analyzed. The pH, conductivity, and osmolalities were also measured for each sample. The stability indicating properties of GALA were evaluated at: 40° C.±2° C./75% RH±5% Relative Humidity (RH). A qualified stability chamber with uniform and constant temperature and relative humidity was used for storing the product containers. The chamber's thermometer and digital readout were recorded daily. Samples received for the proposed stability study were logged and tracked in a Sample Receipt and Storage Log and maintained at 2-8° C. until the commencement of the study. A minimum of twenty one containers of the device from each representative batch of the first and second solutions were placed in the stability chamber maintained at 40° C.±2° C./75% RH±5% RH. This date was recorded as the zero time point. Three containers of each of the first and second solutions were pulled at 0, 5, 9, 15, 30, 50, and 80-day intervals from the stability chamber for testing.

Where [1] appears, read: in the final formulation (first and second solutions mixed) having a pH of about 7.4.
Where [2] appears, read: in the second solution having a pH of about 3.0.

For the compound `N[C@@H](CCC(=O)N[C@@H](CS)C(=O)NCC(=O)O)C(=O)O` [reduced glutathione, L-glutathione (reduced)], the rate of decay entry runs as follows: under setting [1], “about 6 mg per day”; under setting [2], “about 3 mg per day”.

For `O=C1O[C@H]([C@@H](O)CO)C(O)=C1O` [ascorbic acid, L-ascorbic acid], the rate of decay entry under setting [1] is on record as “about 15 mg per day” and the rate of decay result under setting [2] is recorded as “about 3 mg per day”.

The values above are taken from patent publication US20150313209A1, “SOLUTION FOR PRESERVING VASCULAR CONDUITS” (SOMAHLUTION, LLC, priority 2012, published 2015).
